Biological target: T1, EP4 receptor (Homo sapiens, UniProt P35408)
T1 construct: host or cells: HEK 293(ebna) according to the general protocol; cells used by the contract laboratory not given
Test: EP4 receptor binding assay (inhibition of [3H]PGE2 binding, MSD Pharma Service)
Conditions: 1 nM [3H] PGE2, Human recombinant Chem-1 cells; for inhibition at 0.002 µM: Tested Concentration 2 nM; for inhibition at 0.01 µM: Tested Concentration 10 nM
Experimental: Transfected HEK 293(ebna) cells are maintained in culture, harvested and membranes are prepared by differential centrifugation, following lysis of the cells in the presence of protease inhibitors, for use in receptor binding assays. Prostanoid receptor binding assays (for DP1, DP2 (CRTH2), EP1, EP2, EP3-III, EP4, FP, IP, and TP) are performed in 10 mM MES/KOH (pH 6.0) (EPs, FP and TP) or 10 mM HEPES/KOH (pH 7.4) (DPs and IP), containing 1 mM EDTA, 2.5-30 mM divalent cation and the appropriate radioligand. Synthetic compounds are added in dimethylsulfoxide which is kept constant at 1% (v/v) in all incubations. The reaction is initiated by addition of membrane protein. Non-specific binding is determined in the presence of 10 μM of the corresponding non-radioactive prostanoid. Incubations are conducted for 60-90 min at room temperature or 30° C. and terminated by rapid filtration. Specific binding is calculated by subtracting non specific binding from total binding. The residual specific binding at each ligand concentration is calculated and expressed as a function of ligand concentration in order to construct sigmoidal concentration-response curves. The binding affinity of the compounds is determined by calculating the equilibrium inhibition constant (Ki) from the equation Ki=InPt/1[radioligand]/Kd where Kd is the equilibrium dissociation constant for the radioligand:receptor interaction and InPt is the inflection point of the dose-response curves.
EP4 receptor binding assays were performed at MSD Pharma Service in Taiwan under the following assay conditions: […]

T1 sequence (P35408 whole entry): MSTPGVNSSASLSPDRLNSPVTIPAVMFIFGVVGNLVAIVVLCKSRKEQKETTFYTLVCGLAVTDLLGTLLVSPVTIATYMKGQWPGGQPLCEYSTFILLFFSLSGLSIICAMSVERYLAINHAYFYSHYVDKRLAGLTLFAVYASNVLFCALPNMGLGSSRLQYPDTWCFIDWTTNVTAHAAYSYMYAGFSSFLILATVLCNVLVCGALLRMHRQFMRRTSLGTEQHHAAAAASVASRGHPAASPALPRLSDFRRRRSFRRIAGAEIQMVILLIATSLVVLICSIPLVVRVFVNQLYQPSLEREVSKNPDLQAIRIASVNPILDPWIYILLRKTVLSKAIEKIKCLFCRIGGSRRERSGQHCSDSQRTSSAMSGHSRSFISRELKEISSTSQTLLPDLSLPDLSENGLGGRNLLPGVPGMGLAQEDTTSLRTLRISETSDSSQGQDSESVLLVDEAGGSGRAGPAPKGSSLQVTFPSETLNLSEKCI

Row | Structure (SMILES) | inhibition at 0.002 µM | inhibition at 0.01 µM
1 | O=C(O)c1ccc(C2(NC(=O)c3csc4ccn(Cc5ccc(C(F)(F)F)cc5)c34)CC2)cc1 | 88% | –
2 | Cc1sc2ccn(Cc3ccc(C(F)(F)F)cc3)c2c1C(=O)NC1(c2ccc(C(=O)O)cc2)CC1 | 93% | –
3 | Cc1sc2ccn(Cc3ccc(C(F)(F)F)cc3)c2c1C(=O)NC(C)c1ccc(C(=O)O)cc1 (centres unmarked) | – | 85%
4 | CC(NC(=O)c1csc2ccn(Cc3ccc(C(F)(F)F)cc3)c12)c1ccc(C(=O)O)cc1 (centres unmarked) | – | 87%
5 | O=C(O)c1ccc(C2(NC(=O)c3cccc4c3N(Cc3ccc(C(F)(F)F)cc3)C(=O)C4)CC2)cc1 | – | 83%
